For experiment [1], the target named is T1, Alpha-2A adrenergic receptor (Homo sapiens, UniProt P08913).
T1 sequence (P08913 whole entry): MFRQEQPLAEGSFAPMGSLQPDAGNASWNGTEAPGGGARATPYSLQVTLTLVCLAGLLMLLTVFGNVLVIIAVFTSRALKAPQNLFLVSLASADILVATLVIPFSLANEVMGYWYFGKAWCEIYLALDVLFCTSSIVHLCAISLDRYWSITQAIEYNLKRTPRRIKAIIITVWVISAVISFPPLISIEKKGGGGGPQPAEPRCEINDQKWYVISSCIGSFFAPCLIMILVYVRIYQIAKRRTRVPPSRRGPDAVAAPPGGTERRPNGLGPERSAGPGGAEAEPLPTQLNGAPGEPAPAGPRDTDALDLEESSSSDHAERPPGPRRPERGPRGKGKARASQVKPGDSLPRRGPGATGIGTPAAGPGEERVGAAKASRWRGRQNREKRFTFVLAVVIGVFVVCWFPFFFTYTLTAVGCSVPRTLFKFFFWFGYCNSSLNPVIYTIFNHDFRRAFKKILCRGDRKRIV

The target of experiment [2] is T2, Muscarinic acetylcholine receptor M2 (Homo sapiens, UniProt P08172).
T2 sequence (P08172 whole entry): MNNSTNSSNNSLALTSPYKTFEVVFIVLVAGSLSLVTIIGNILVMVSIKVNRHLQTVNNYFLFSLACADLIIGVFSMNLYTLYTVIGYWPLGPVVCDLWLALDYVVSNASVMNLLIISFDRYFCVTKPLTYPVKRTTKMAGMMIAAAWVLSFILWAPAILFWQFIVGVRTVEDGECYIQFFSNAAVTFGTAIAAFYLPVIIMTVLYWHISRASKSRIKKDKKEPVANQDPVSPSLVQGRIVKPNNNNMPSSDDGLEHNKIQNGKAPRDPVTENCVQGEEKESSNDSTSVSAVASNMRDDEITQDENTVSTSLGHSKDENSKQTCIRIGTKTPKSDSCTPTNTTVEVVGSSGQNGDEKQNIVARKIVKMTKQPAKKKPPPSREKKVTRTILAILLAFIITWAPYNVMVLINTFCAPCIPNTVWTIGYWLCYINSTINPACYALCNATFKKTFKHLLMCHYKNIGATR

A further experiment has as its target D(1A) dopamine receptor (Homo sapiens, UniProt P21728).
Experiment [3] concerns the target 5-hydroxytryptamine receptor 2B (Homo sapiens, UniProt P41595). In kind it is functional, cell-based.
Experiment [4] addresses T3, Amine oxidase [flavin-containing] A (Homo sapiens, UniProt P21397).
T3 sequence (P21397 whole entry): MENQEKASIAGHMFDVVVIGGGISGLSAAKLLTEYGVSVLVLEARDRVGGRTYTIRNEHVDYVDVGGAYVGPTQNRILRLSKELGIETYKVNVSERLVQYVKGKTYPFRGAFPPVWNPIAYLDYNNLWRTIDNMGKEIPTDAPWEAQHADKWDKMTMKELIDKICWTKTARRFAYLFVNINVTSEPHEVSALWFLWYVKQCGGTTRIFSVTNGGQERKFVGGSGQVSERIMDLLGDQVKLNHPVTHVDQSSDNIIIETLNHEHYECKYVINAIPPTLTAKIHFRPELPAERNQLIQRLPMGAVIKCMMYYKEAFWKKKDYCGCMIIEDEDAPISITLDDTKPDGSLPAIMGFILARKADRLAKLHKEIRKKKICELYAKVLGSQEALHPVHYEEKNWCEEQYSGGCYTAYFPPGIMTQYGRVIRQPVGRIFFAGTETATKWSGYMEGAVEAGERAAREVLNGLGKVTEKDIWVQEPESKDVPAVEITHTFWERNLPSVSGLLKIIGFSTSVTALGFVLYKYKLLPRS
It is filed as functional.

The target of another experiment is Mu-type opioid receptor (Homo sapiens, UniProt P35372).
The target of experiment [5] is 3',5'-cyclic-AMP phosphodiesterase 4A (Homo sapiens, UniProt P27815). It is filed as functional.
Experiment [6] addresses Prostaglandin G/H synthase 1 (Homo sapiens, UniProt P23219). In kind it is functional.
In experiment [7] the target is Sodium-dependent noradrenaline transporter (Homo sapiens, UniProt P23975).
For another experiment, the target named is T4, Thromboxane A2 receptor (Homo sapiens, UniProt P21731).
T4 sequence (P21731 whole entry): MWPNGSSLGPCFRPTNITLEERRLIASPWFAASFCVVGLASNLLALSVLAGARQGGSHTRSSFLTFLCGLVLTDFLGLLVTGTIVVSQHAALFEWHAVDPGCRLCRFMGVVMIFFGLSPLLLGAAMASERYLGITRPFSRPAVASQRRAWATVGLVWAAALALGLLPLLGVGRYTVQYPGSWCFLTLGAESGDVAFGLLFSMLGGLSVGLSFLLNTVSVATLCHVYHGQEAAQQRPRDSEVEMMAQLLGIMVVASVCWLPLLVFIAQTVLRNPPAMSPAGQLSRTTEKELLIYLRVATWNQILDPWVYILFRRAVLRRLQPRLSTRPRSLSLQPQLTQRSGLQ
It is filed as functional, cell-based.

The structures appear in SMILES notation. A value given as a limit tells only on which side of the number the result lay.
Note: assay procedure not described here.

Sequence of Mu-type opioid receptor (P35372 whole entry): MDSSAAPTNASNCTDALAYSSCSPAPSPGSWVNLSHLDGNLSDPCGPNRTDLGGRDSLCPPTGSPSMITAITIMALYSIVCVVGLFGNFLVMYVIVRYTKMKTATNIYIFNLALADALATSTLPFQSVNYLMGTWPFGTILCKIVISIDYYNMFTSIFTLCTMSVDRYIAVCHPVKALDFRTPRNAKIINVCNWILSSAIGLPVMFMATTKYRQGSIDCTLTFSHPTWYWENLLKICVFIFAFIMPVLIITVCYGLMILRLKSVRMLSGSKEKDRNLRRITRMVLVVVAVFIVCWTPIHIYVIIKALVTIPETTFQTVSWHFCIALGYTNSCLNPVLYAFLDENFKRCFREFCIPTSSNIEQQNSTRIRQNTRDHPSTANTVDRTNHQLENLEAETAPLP
Sequence of Prostaglandin G/H synthase 1 (P23219 whole entry): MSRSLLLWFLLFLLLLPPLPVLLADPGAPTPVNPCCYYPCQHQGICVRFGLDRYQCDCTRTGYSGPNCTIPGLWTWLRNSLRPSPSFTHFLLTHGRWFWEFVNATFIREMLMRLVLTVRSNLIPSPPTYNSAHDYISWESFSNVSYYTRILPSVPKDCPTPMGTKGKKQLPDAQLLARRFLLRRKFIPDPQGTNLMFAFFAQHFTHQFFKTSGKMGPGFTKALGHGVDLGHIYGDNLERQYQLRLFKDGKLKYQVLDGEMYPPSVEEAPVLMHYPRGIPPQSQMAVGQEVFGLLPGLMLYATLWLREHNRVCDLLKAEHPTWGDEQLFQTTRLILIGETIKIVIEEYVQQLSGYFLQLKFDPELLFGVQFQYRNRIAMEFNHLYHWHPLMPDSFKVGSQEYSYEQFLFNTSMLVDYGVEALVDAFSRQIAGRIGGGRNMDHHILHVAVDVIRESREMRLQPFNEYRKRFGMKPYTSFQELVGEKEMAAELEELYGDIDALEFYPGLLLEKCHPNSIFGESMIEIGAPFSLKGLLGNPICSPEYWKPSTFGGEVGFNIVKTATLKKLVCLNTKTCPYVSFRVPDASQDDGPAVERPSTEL
Sequence of D(1A) dopamine receptor (P21728 whole entry): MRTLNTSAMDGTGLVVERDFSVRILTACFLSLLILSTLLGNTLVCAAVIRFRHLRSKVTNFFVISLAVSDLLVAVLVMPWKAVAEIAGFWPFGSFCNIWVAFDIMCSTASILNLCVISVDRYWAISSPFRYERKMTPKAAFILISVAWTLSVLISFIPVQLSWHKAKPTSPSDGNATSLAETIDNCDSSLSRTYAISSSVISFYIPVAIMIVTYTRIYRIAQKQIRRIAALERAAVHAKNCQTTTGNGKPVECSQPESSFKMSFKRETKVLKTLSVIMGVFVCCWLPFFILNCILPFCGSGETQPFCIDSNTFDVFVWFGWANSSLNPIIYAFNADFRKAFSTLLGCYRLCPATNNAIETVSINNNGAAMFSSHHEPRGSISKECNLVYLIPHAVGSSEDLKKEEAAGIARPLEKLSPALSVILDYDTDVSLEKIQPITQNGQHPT
Sequence of 3',5'-cyclic-AMP phosphodiesterase 4A (P27815 whole entry): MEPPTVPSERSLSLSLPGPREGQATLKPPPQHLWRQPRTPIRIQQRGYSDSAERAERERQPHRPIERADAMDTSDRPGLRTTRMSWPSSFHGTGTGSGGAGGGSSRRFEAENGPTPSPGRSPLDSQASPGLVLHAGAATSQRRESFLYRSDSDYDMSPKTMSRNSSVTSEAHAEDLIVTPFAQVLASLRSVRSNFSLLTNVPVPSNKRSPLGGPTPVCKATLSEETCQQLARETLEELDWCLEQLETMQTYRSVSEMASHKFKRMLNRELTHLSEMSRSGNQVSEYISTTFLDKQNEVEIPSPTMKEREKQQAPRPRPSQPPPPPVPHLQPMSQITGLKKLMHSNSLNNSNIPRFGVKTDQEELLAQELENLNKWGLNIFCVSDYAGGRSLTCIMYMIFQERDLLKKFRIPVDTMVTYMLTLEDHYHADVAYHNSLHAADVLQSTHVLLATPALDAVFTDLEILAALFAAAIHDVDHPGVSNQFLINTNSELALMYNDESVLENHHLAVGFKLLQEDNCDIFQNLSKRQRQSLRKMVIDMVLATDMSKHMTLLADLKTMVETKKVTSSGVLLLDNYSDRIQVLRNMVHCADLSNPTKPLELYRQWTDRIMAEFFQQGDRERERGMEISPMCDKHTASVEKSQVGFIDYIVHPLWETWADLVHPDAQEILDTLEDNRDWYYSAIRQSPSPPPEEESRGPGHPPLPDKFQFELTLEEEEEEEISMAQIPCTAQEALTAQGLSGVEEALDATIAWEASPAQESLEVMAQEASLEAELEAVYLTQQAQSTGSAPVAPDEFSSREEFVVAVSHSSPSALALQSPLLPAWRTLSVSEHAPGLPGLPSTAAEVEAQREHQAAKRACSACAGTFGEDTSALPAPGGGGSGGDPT
Sequence of 5-hydroxytryptamine receptor 2B (P41595 whole entry): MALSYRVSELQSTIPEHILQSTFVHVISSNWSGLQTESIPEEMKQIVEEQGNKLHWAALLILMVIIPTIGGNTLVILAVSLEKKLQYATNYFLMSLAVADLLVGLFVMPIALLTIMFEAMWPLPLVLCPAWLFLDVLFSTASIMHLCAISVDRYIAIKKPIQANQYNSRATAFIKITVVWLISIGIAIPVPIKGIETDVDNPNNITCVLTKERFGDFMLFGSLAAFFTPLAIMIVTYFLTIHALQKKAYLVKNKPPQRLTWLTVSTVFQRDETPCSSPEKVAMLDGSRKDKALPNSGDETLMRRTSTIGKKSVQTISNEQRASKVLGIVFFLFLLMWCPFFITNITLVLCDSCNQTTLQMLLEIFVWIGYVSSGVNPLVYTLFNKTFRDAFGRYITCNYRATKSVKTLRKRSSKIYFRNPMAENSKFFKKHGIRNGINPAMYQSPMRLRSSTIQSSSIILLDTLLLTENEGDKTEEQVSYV
Sequence of Sodium-dependent noradrenaline transporter (P23975 whole entry): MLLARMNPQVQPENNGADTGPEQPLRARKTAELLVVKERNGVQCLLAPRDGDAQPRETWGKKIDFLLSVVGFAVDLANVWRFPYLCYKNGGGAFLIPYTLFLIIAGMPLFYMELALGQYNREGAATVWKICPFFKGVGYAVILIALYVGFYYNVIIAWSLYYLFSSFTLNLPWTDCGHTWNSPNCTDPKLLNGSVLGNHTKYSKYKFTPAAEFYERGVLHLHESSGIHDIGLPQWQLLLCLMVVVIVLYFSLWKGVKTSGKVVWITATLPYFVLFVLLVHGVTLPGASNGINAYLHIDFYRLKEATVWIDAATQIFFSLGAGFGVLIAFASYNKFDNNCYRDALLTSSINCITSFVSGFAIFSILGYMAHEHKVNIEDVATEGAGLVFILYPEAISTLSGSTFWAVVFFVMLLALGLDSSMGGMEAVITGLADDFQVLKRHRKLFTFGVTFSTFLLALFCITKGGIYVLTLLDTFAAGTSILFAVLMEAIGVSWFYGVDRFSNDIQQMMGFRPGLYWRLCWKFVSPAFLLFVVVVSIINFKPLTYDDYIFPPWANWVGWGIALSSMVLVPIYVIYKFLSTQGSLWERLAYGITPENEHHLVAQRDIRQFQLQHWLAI

In the case of `COc1c2ccoc2cc2oc(=O)ccc12` [BERGAPTEN], the AC50 – broadly, the concentration at which the activity in the assay is half-maximal – in experiment [1] was above 30 µM; in experiment [2], above 30 µM; on D(1A) dopamine receptor it was above 30 µM; in experiment [3], above 30 µM; in experiment [4] it was above 10 µM; on Mu-type opioid receptor it was above 30 µM. Besides, the AC50 (in [5]; in [6]; in [7]; at Thromboxane A2 receptor) was above 30 µM each time.

With `CNC(=O)Oc1cccc2ccccc12` [CARBARIL], the AC50 (in experiment [1]; in experiment [2]; on D(1A) dopamine receptor; in [3]; in experiment [4]; at Mu-type opioid receptor) was above 30 µM each time. In addition, the AC50 in experiment [5] is above 30 µM; in [6], 4.19 µM; in experiment [7], above 30 µM; on Thromboxane A2 receptor, above 30 µM.

Turning to `O=C(O)CO` [GLYCOLIC ACID], the concentration at half-maximal activity (AC50) (in [1]; in experiment [2]; on D(1A) dopamine receptor; in [3]; in experiment [4]; at Mu-type opioid receptor) was above 30 µM throughout. Also, the AC50 (in experiment [5]; in experiment [6]; in experiment [7]; at Thromboxane A2 receptor) was above 30 µM throughout.

With `N#Cc1ccc2c(c1)N(CCCN1CCC(O)CC1)c1ccccc1S2` [PERICIAZINE], the AC50 in [2] was 5.87 µM; in experiment [3], above 30 µM; in experiment [4], above 30 µM; on Mu-type opioid receptor, 4.59 µM; in [5] it was above 30 µM; in [6], above 30 µM. The AC50 in experiment [7] worked out at 5.08 µM; at Thromboxane A2 receptor, 17 µM.

For `OC[C@H]1O[C@@](CO)(O[C@H]2O[C@H](CO)[C@@H](O)[C@H](O)[C@H]2O)[C@@H](O)[C@@H]1O` [SUCROSE], the AC50 (in experiment [1]; in [2]; at D(1A) dopamine receptor; in [3]; in experiment [4]; on Mu-type opioid receptor) was above 30 µM in each case. Further, the AC50 (in [5]; in experiment [6]; in experiment [7]; at Thromboxane A2 receptor) was above 30 µM in each case.

Take `CC1=C(/C=C/C(C)=C/C=C/C(C)=C/C(=O)O)C(C)(C)CCC1` [TRETINOIN]: the AC50 (in [1]; in [2]; on D(1A) dopamine receptor; in experiment [3]; in experiment [4]; at Mu-type opioid receptor) was above 30 µM throughout. Also, the half-maximal activity concentration (AC50) in experiment [5] amounted to 1.27 µM; in [7] it was 10.5 µM; on Thromboxane A2 receptor it was 14.3 µM.

In the case of `CCOC(=O)c1c(C)cc2c(CO)n[nH]c(=O)c2c1C` [OXAGRELATE], the AC50 (in experiment [1]; in experiment [2]; at D(1A) dopamine receptor; in experiment [3]; in experiment [4]; at Mu-type opioid receptor) was above 30 µM in each case. Moreover, the AC50 (in [5]; in experiment [6]; in experiment [7]; on Thromboxane A2 receptor) was above 30 µM in each case.

As to `CCn1cc(C(=O)O)c(=O)c2cc3c(cc21)OCO3` [OXOLINIC ACID], the AC50 (in experiment [1]; in [2]; at D(1A) dopamine receptor; in [3]; in [4]; on Mu-type opioid receptor) was above 30 µM each time. The AC50 (in experiment [5]; in [6]; in [7]; at Thromboxane A2 receptor) was above 30 µM each time.

Turning to `Nc1ccc(C(=O)Oc2ccccc2)c(O)c1` [PHENYL AMINOSALICYLATE], the AC50 (in experiment [1]; in experiment [2]; on D(1A) dopamine receptor; in experiment [3]; in [4]; on Mu-type opioid receptor) was above 30 µM each time. Further, the AC50 was 14.5 µM in experiment [5], above 30 µM in experiment [6], 0.777 µM in experiment [7] and 17.2 µM at Thromboxane A2 receptor.

Regarding `FC(F)(F)c1ccc(CNc2ccc(Cc3c[nH]c4ncc(Cl)cc34)cn2)cn1` [PEXIDARTINIB], the AC50 in experiment [1] is 17.1 µM; in experiment [2], 0.496 µM; on D(1A) dopamine receptor, 20.2 µM; in experiment [3], above 30 µM; in experiment [4], above 30 µM; at Mu-type opioid receptor, 13.4 µM. In addition, the AC50 in experiment [5] was above 30 µM; in experiment [6], above 30 µM; in [7], 3.96 µM; on Thromboxane A2 receptor, 8.61 µM.

Turning to `C[C@H]1O[C@@H](n2cc(F)c(=O)[nH]c2=O)[C@H](O)[C@@H]1O` [DOXIFLURIDINE], the AC50 (in experiment [1]; in experiment [2]; on D(1A) dopamine receptor; in experiment [3]; in [4]; on Mu-type opioid receptor) was above 30 µM throughout. Moreover, the AC50 (in experiment [5]; in experiment [6]; in experiment [7]; at Thromboxane A2 receptor) was above 30 µM in each case.

For the compound `O=C1/C(=C2\Nc3ccc(S(=O)(=O)O)cc3C2=O)Nc2ccc(S(=O)(=O)O)cc21` [INDIGOTINDISULFONATE], the AC50 (in experiment [1]; in experiment [2]; at D(1A) dopamine receptor; in [3]; in experiment [4]; at Mu-type opioid receptor) was above 30 µM each time. For the same compound, the half-maximal activity concentration (AC50) (in [5]; in experiment [6]; in experiment [7]; at Thromboxane A2 receptor) was above 30 µM throughout.

Regarding `CC[C@@]1(O)C(=O)OCc2c1cc1n(c2=O)Cc2cc3c([N+](=O)[O-])cccc3nc2-1` [RUBITECAN], the concentration at half-maximal activity (AC50) (in [1]; in experiment [2]; at D(1A) dopamine receptor; in [3]; in [4]; at Mu-type opioid receptor) was above 30 µM each time. For the same compound, the half-maximal activity concentration (AC50) in experiment [5] was above 30 µM; in experiment [6] it was above 30 µM; in experiment [7] it was above 30 µM; at Thromboxane A2 receptor, above 10 µM.

Consider `CN(C)[C@@H]1C(O)=C(C(N)=O)C(=O)[C@@]2(O)C(O)=C3C(=O)c4c(O)ccc(Cl)c4[C@@](C)(O)[C@H]3C[C@@H]12` [CHLORTETRACYCLINE], for which the AC50 (in experiment [1]; in [2]; at D(1A) dopamine receptor; in [3]; in experiment [4]; at Mu-type opioid receptor) was above 30 µM in each case. The AC50 (in experiment [6]; in [7]; at Thromboxane A2 receptor) was above 30 µM each time.

Turning to `CC(CCc1ccccc1)NCC(O)c1ccc(O)c(C(N)=O)c1` (stereo not given) [LABETALOL], the AC50 in experiment [2] is above 30 µM; on D(1A) dopamine receptor, above 30 µM; in experiment [3], above 30 µM; in experiment [4], above 30 µM; at Mu-type opioid receptor, 2.42 µM; in experiment [5], above 30 µM. Moreover, the AC50 in experiment [6] is above 30 µM; in experiment [7] it was 4.04 µM; on Thromboxane A2 receptor, above 30 µM.

The values above are taken from ChEMBL document CHEMBL5291721, “A preclinical secondary pharmacology resource illuminates target-adverse drug reaction associations of marketed drugs” (Nat Commun, 2023).
